The solubility is the dissolved amount per volume that the medium holds. Lower therefore signals little dissolved substance.

A short description of data set [1]: Gravimetric vapour sorption (GVS) analysis, hygroscopicity. The format is physicochemical. Conditions: mass change between 40% and 80% relative humidity, first adsorption scan, 25° C. Here is the method:
Gravimetric Vapour Sorption (GVS) Analysis:
Measurements were performed simultaneously for the COMPOUND in the crystalline form A, B, and C on a multi sample instrument SPS-100n (Projekt Messtechnik, Ulm, Germany) operated in stepping mode at 25° C.

A short description of data set [2]: Aqueous solubility. The format is physicochemical. Conditions: in water.

Values after ≈ are worked out from the molar mass of the structure shown.

In the case of `CCc1cc(-c2noc(-c3cc(OC)nc(C4CCCC4)c3)n2)cc(C)c1OC[C@@H](O)CO` [Form B, (S)-3-{4-[5-(2-cyclopentyl-6-methoxy-pyridin-4-yl)-[1,2,4]oxadiazol-3-yl]-2-ethyl-6-methyl-phenoxy}-propane-1,2-diol], in data set [1], the “hygroscopic classification (European Pharmacopeia Technical Guide)” value is on record as “Slightly hygroscopic” and the mass gain is on record as 0.5%.
For `CCc1cc(-c2noc(-c3cc(OC)nc(C4CCCC4)c3)n2)cc(C)c1OC[C@@H](O)CO` [Form C, (S)-3-{4-[5-(2-cyclopentyl-6-methoxy-pyridin-4-yl)-[1,2,4]oxadiazol-3-yl]-2-ethyl-6-methyl-phenoxy}-propane-1,2-diol], in that order: “Slightly hygroscopic” and 0.8%.
For `CCc1cc(-c2noc(-c3cc(OC)nc(C4CCCC4)c3)n2)cc(C)c1OC[C@@H](O)CO` [COMPOUND, (S)-3-{4-[5-(2-cyclopentyl-6-methoxy-pyridin-4-yl)-[1,2,4]oxadiazol-3-yl]-2-ethyl-6-methyl-phenoxy}-propane-1,2-diol], in data set [2], the solubility was roughly 0.06 µg/mL (≈ 0.132 µM).
Regarding `CCc1cc(-c2noc(-c3cc(OC)nc(C4CCCC4)c3)n2)cc(C)c1OC[C@@H](O)CO` [Form A, (S)-3-{4-[5-(2-cyclopentyl-6-methoxy-pyridin-4-yl)-[1,2,4]oxadiazol-3-yl]-2-ethyl-6-methyl-phenoxy}-propane-1,2-diol], in data set [1], the “hygroscopic classification (European Pharmacopeia Technical Guide)” value is “Non-hygroscopic” and the mass gain entry is reported as “less than 0.2%”.

The values are drawn from US11834443B2, “Crystalline form of the compound (s)-3-{4-[5-(2-cyclopentyl-6-methoxy-pyridin-4-yl)-[1,2,4]oxadiazol-3-yl]-2-ethyl-6-methyl-phenoxy}-propane-1,2-diol” (Idorsia Pharmaceuticals Ltd, priority 2015, dated 2023).
